Data published in US8946426B2, “Substituted bicyclic heterocyclic compounds as gamma secretase modulators” (Janssen Pharmaceuticals, Inc., priority 2009, dated 2015).

Experiments:
Aβ42 [1] = assay: Method 1: Aβ42 sandwich ELISA in supernatant of SKNBE2 cells carrying APP 695-wild type (Tables 7a, 7b); type: cell-based
In short: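 IC50 values were derived with a 4-parameter equation, fitting either percent inhibition or percent of compound-free Aβ42 as the control. The Aβ42 came from supernatants of APP695 wild-type SKNBE2 cells treated for 18 hours. It was measured by ELISA with anti-Aβ42 capture, biotinylated 3D6 and TMB absorbance at 450 nm.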

Aβtotal [2] = assay: Method 1: Aβtotal sandwich ELISA in supernatant of SKNBE2 cells carrying APP 695-wild type (Tables 7a, 7b); type: cell-based
In short: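 SKNBE2 cells expressing wild-type APP695 were exposed to compound for 18 Hours in Ultraculture with 1% glutamine. Aβtotal in the supernatant was read by 6E10-capture/biotinylated 4G8 sandwich ELISA with a fluorogenic peroxidase read-out, and WST-1 checked toxicity. IC50 came from a 4-parameter fit of percent inhibition or percent of control versus concentration.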

Aβ42 [3] = assay: In vivo efficacy: Aβ42 lowering in brain after single oral dose (Table 8); settings: mouse brain soluble fraction, ELISA, compared to untreated animals
Excerpt: (§1) To determine whether acute administration of an Aβ42 lowering agent would reduce Aβ42 levels in vivo, non-transgenic rodents, e.g. mice or rats were used. Alternatively, two to three month old Tg2576 mice expressing APP695 containing the “Swedish” variant can be used or a transgenic mouse model developed by Dr. Fred Van Leuven (K.U.Leuven, Belgium) and co-workers, with neuron-specific expression of a clinical mutant of the human amyloid precursor protein [V7171] (Moechars et al., 1999 J. Biol. Chem. 274, 6483). Young transgenic mice have high levels of Aβ in the brain but no detectable Aβ deposition. At approximately 6-8 months of age, the transgenic mice start to display spontaneous, progressive accumulation of β-amyloid (Aβ) in the brain, eventually resulting in amyloid plaques within the subiculum, hippocampus and cortex. Animals treated with the Aβ42 lowering agent were examined and compared to those untreated or treated with vehicle and brain levels of soluble Aβ42 and total Aβ would be quantitated by standard techniques, for example, using ELISA. Treatment periods varied from hours to days and were adjusted based on the results of the Aβ42 lowering once a time course of onset of effect could be established.
(§2) A typical protocol for measuring Aβ42 lowering in vivo is shown but it is only one of many variations that could be used to optimize the levels of detectable Aβ. For example, Aβ42 lowering compounds were formulated in 20% of Captisol® (a sulfobutyl ether of β-cyclodextrin) in water or 20% hydroxypropyl β cyclodextrin. The Aβ42 lowering agents were administered as a single oral dose or by any acceptable route of administration to overnight fasted animals. After four hours, the animals were sacrificed and Aβ42 levels were analysed.
(§3) Blood was collected by decapitation and exsanguinations in EDTA-treated collection tubes. Blood was centrifuged at 1900 g for 10 min at 4° C. and the plasma recovered and flash frozen for later analysis. The brain was removed from the cranium and hindbrain. The cerebellum was removed and the left and right hemisphere were separated. The left hemisphere was stored at −18° C. for quantitative analysis of test compound levels. The right hemisphere was rinsed with phosphate-buffered saline (PBS) buffer and immediately frozen on dry ice and stored at −80° C. until homogenization for biochemical assays.
(§4) Mouse brains were resuspended in 10 volumes of 0.4% DEA (diethylamine)/50 mM NaCl pH 10 (for non-transgenic animals) or 0.1% 3-[(3-cholamidopropyl)-dimethyl-ammonio]-1-propanesulfonate (CHAPS) in tris buffered saline (TBS) (for transgenic animals) containing protease inhibitors (Roche-11873580001 or 04693159000 per gram of tissue, e.g. for 0.158 g brain, add 1.58 ml of 0.4% DEA. All samples were sonicated for 30 sec on ice at 20% power output (pulse mode). Homogenates were centrifuged at 221.300×g for 50 min. The resulting high speed supernatants were then transferred to fresh tubes and were optionally further purified before the next step. A portion of the supernatant was neutralized with 10% 0.5 M Tris-HCl and this was used to quantify Aβtotal.
(§5) The obtained supernatants were purified with Water Oasis HLB reverse phase columns (Waters Corp., Milford, Mass.) to remove non-specific immunoreactive material from the brain lysates prior subsequent Aβ detection. Using a vacuum manifold, all solutions were passed through the columns at a rate of approximately 1 ml per minute, so the vacuum pressure was adjusted accordingly throughout the procedure. Columns were preconditioned with 1 ml of 100% MeOH, before equilibration with 1 ml of H2O. Non-neutralized brain lysates were loaded onto the columns. The loaded samples were then washed twice with the first wash performed with 1 ml of 5% MeOH, and the second wash with 1 ml of 30% MeOH. Finally, the Aβ was eluted from the columns and into 100×30 mm glass tubes, with a solution of 90% MeOH with 2% NH4OH. […]

Aβtotal [4] = assay: In vivo efficacy: Aβtotal lowering in brain after single oral dose (Table 8); settings: mouse brain soluble fraction, ELISA, compared to untreated animals
Excerpt: as §1, §2, §3, §4, §5

Aβ42 [5] = assay: Method 2: Aβ42 Alphalisa in supernatant of SKNBE2 cells carrying APP 695-wild type (Table 7c); type: cell-based; settings: Method 2, Alphalisa, overnight incubation
In short: (§6)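 Secreted Aβ measured by AlphaLISA sandwich immunoassay after overnight compound exposure (37° C, 10^4 cells/well) of APP695-wild-type SKNBE2 cells. Aβtotal pairs antibodies JRF/AβN/25 and biotinylated 4G8; Aβ42 pairs JRF/cAβ42/26 and JRF/AβN/25. Values normalised to compound-free control and fitted with a four-parameter equation for IC50.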

Aβtotal [6] = assay: Method 2: Aβtotal Alphalisa in supernatant of SKNBE2 cells carrying APP 695-wild type (Table 7c); type: cell-based; settings: Method 2, Alphalisa, overnight incubation
In short: as §6

[7] = system: Notch-processing activity of the γ-secretase-complex; assay: Notch cell-free assay (NICD production from recombinant Notch substrate N99); type: biochemical; settings: 1 μM test compound; 0.3-0.5 μM mouse Notch substrate; enriched gamma secretase; 37° C., 6 to 22 h; western blot; control GSI concentration not given
Protocol: The Notch transmembrane domain is cleaved by gamma secretase to release Notch Intracellular C-terminal Domain (NICD).
To monitor the effect of compounds on NICD production, a recombinant Notch substrate (N99) was prepared. The Notch substrate, comprised of mouse Notch fragment (V1711-E1809), an N-terminal methionine and a C-terminal FLAG sequence ([…]), was expressed in E. coli and purified on a column containing an anti-FLAG M2 affinity matrix.
A typical Notch cell-free assay consisted of 0.3-0.5 μM Notch substrate, an enriched preparation of gamma secretase and 1 μM of a test compound (compounds 16, 18 and 106 of the present invention). Controls included a gamma secretase inhibitor (GSI), such as (2S)—N-[2-(3,5-difluorophenyl)acetyl]-L-alanyl-2-phenyl-glycine 1,1-dimethylethyl ester (DAPT) or (2S)-2-hydroxy-3-methyl-N-[(1S)-1-methyl-2-oxo-2-[[(1S)-2,3,4,5-tetrahydro-3-methyl-2-oxo-1H-3-benzazepin-1-yl]amino]ethyl]-butanamide (Semagacestat), and DMSO, the final concentration of DMSO being 1%. Recombinant Notch substrate was pre-treated with 17 μM DTT (1,4-dithiothreitol) and 0.02% SDS (Sodium Dodecyl Sulfate) and heated at 65° C. for 10 min. The mixture of substrate, gamma secretase and compound/DMSO was incubated at 37° C. for 6 to 22 hours (h). Six-hour incubation was sufficient to produce the maximal amount of NICD and the cleaved product remained stable for an additional 16 H. Reaction products were processed for SDS PAGE (Sodium Dodecyl Sulfate-Poly Acrylamide Gel Electrophoresis) and western blotting. Blots were probed with an anti-Flag M2 antibody, followed by LI-COR infrared secondary antibody, and analyzed with the Odyssey Infrared Imaging System (LI-COR® Biosciences).

[8] = Homo sapiens, SKNBE2, Table 7b, averaged IC50, non-linear regression of percentage of control vs log concentration, 4-parameter equation
[9] = Homo sapiens, Table 7a, SKNBE2 cells, compounds 18 h, XLfit 4-parameter fit of percent inhibition, top/bottom fixed to 100/0, hill slope 1
[10] = Table 7b, averaged IC50, non-linear regression of percentage of control vs log concentration, 4-parameter equation

| SMILES | IC50 (Aβ42 [1]; [8]) | IC50 (Aβtotal [2]; [8]) | melting point | Aβ42 (% Ctrl)_Mean (Aβ42 [3]) | Aβtotal (% Ctrl)_Mean (Aβtotal [4]) | IC50 (Aβ42 [1]; [10]) | IC50 (Aβtotal [2]; [10]) | also measured |
| --- | --- | --- | --- | --- | --- | --- | --- | --- |
| COc1cc(Nc2cccn3cc(-c4ccc(F)cc4)nc23)ccc1-c1ocnc1C [Compound 1] | 200 nM | > 5000 nM | 163.2 °C |  |  |  |  | IC50 (Aβ42 [1]; [9]): 203 nM; IC50 (Aβtotal [2]; [9]): > 5000 nM |
| COc1cc(Nc2cccn3cc(-c4ccc(F)cc4)nc23)ccc1-c1cnc(C)o1 [Compound 3] | 178 nM | > 10000 nM | 219.1 °C |  |  |  |  | IC50 (Aβ42 [1]; [9]): 196 nM; IC50 (Aβtotal [2]; [9]): > 10000 nM |
| COc1cc(Nc2cccc3c2nc(-c2ccc(F)cc2)n3C)ccc1-c1cnn(C)c1 [Compound 13] | 63 nM | > 3000 nM | 157.6 °C | 87 % Ctrl | 105 % Ctrl |  |  | IC50 (Aβ42 [1]; [9]): 65 nM; IC50 (Aβtotal [2]; [9]): > 3000 nM |
| COc1cc(Nc2nccc3c2nc(-c2ccc(F)cc2)n3C)ccc1-c1cnc(C)o1 [Compound 14] | 105 nM | > 3000 nM | 204.9 °C | 78 % Ctrl | 91 % Ctrl |  |  | IC50 (Aβ42 [1]; [9]): 109 nM; IC50 (Aβtotal [2]; [9]): > 3000 nM |
| COc1cccc(-c2nc3c(Nc4ccc(-c5cnc(C)o5)c(OC)c4)nc(C)cc3n2C)c1 [Compound 97] |  |  |  | 71 % Ctrl | 102 % Ctrl | 21 nM | > 3000 nM |  |
| Cc1ncc(-c2ccc(Nc3cc(C(F)(F)F)cc4c3nc(-c3ccc(F)cc3)n4C)cn2)o1 [Compound 101] |  |  |  | 77 % Ctrl | 92 % Ctrl |  |  | IC50 (Aβ42 [5]): 46 nM; IC50 (Aβtotal [6]): > 10000 nM |
| COc1cc(Nc2cc(F)cc3c2nc(N2CCCC2)n3C)ccc1-c1cnc(C)o1 [Compound 104] |  |  |  | 110 % Ctrl | 97 % Ctrl |  |  | IC50 (Aβ42 [5]): 501 nM; IC50 (Aβtotal [6]): > 10000 nM |
| Cc1ncc(-c2ccc(Nc3cc(F)cc4c3nc(-c3ccc(F)cc3)n4C)cn2)o1 [Compound 106] |  |  |  |  |  | 10 nM | > 1000 nM | IC50 (Aβ42 [5]): 24 nM; IC50 (Aβtotal [6]): > 10000 nM; effect on the Notch-processing activity of the γ-secretase-complex (production of NICD) [7]: did not show an effect |
| COc1cc(Nc2cc(C(F)(F)F)cn3cc(C)nc23)ccc1-c1ocnc1C.Cl.Cl [Compound 141] |  |  |  | 87 % Ctrl | 89 % Ctrl | 251 nM | > 10000 nM |  |
| COc1cc(Nc2cc(F)cn3cc(CC(C)C)nc23)ccc1-c1ocnc1C.Cl [Compound 157] |  |  |  | 77 % Ctrl | 100 % Ctrl | 81 nM | > 10000 nM |  |
| COC(=O)c1cc(Nc2ccc(-c3ocnc3C)c(OC)c2)c2nc(CC(C)C)cn2c1 [Compound 162] | 25 nM | > 10000 nM | 157.1 °C |  |  |  |  | IC50 (Aβ42 [5]; Homo sapiens): 32 nM; IC50 (Aβtotal [6]; Homo sapiens): > 10000 nM |
| COc1cc(Nc2cc(C(F)(F)F)cn3cc(C(C)=O)nc23)ccc1-c1ocnc1C [Compound 165] | 288 nM | > 30000 nM | 183.6 °C |  |  |  |  |  |
| Cc1ncc(-c2ccc(Nc3cccn4c(C(C)C)c(-c5ccc(F)cc5)nc34)cc2)o1 [Compound 175] | 33 nM | > 3000 nM | 157.2 °C |  |  |  |  |  |
| Cc1cn2cc(Br)nc(Nc3ccc(-c4cnc(C)o4)cc3)c2n1 [Compound 179] | > 3000 nM | > 3000 nM | 200.1 °C |  |  |  |  |  |
| Cc1ncc(-c2ccc(Nc3cc(C(F)(F)F)cn4cc(C(=O)N(C)C)nc34)cc2F)o1 [Compound 181] |  |  |  | 104 % Ctrl | 105 % Ctrl | > 3000 nM | > 3000 nM |  |
